From patent publication US20200190043A1, “2-[[5-(TRIFLUOROMETHYL)-1,2,4-OXADIAZOL-3-YL]ARYLOXY](THIO)ACETAMIDES FOR COMBATING PHYTOPATHOGENIC FUNGI” (BASF SE, priority 2017, published 2020)

Legend:
Puccinia recondita [1] = experiment: Preventative control of brown rust on wheat (glass house trial); type: in vivo; settings: 63 ppm active compound, wheat seedlings, untreated plants 80% diseased leaf area
Protocol: (§1) A mixture was prepared of acetone and/or dimethylsulfoxide and the wetting agent/emulsifier Wettol, which is based on ethoxylated alkylphenoles, in a relation (volume) solvent-emulsifier of 99 to 1 was added to the compound to give a total of 5 ml. Water was then added to a total volume of 100 ml. This stock solution was diluted with the described solvent-emulsifier-water mixture to the given concentration. II.4) Preventative Control of Brown Rust on Wheat Caused by Puccinia recondita The first two developed leaves of pot-grown wheat seedling were sprayed to run-off with an aqueous suspension, containing the concentration of active ingredient or their mixture as described below. The next day the plants were inoculated with spores of Puccinia recondita. To ensure the success the artificial inoculation, the plants were transferred to a humid chamber without light and a relative humidity of 95 to 99% and 20 to 24° C. for 24 hours. Then the trial plants were cultivated for 6 days in a greenhouse chamber at 20 to 24° C. and a relative humidity between 65 and 70%. The extent of fungal attack on the leaves was visually assessed as % diseased leaf area.

Puccinia recondita [2] = experiment: Curative control of brown rust on wheat (glass house trial); type: in vivo; settings: 63 ppm active compound, wheat seedlings, untreated plants 80% diseased leaf area
Protocol: as §1, with “concentration. II.3) Curative” for “concentration. II.4) Preventative”, “were dusted” for “were sprayed to run-off with an aqueous suspension, containing the concentration of active ingredient or their mixture as described below. The next day the plants were inoculated”, “hours. The next day the plants were cultivated for 3 days in a greenhouse chamber at 20 to 24° C. and a relative humidity between 65 and 70%. Then the plants were sprayed to run-off with an aqueous suspension, containing the concentration of active ingredient or their mixture as described below. The plants could air-dry.” for “hours.”, “for 8” for “for 6”

CN(C)C(=O)C(F)(F)Oc1ccc(-c2noc(C(F)(F)F)n2)cc1 [I-2]
diseased leaf area (Puccinia recondita [1]): 2%
diseased leaf area (Puccinia recondita [2]): 3%
